This is an account of results in PMC10223822, “Identification of the Hepatic Metabolites of Flumazenil and their Kinetic Application in Neuroimaging” (Pharmaceuticals, 2023).

Data set [1] is described as follows: Flumazenil biotransformation in rat liver homogenate (HPLC-DAD/tandem MS). It is filed as in vitro ADME. As for the experimental part:
(§1) The quantification of flumazenil metabolism by hepatic enzymes was performed using HPLC (Agilent 1100 series, Palo Alto, CA, USA), which is comprised of an online degasser, a binary pump, an auto sampler, a thermostat column oven (maintained at 25 °C), and a diode array detector (DAD, 250 nm). Data were acquired and processed using the Agilent ChemStation software (ed. 10.02). Separation was achieved using a C18 column with a guard column and an ammonium acetate buffer–acetonitrile gradient elution. The mobile phase consisted of eluents A (5 mM ammonium acetate aqueous buffer with 1% ACN, pH 7.0) and B (ACN only) at a flow rate of 0.6 mL min^−1. These were mixed to separate the metabolites and flumazenil from the sample matrices, according to the gradient program shown in Table 1. The overall LC time for flumazenil biotransformation was 15 min. An analyte solution of 5 µL was injected using an auto-sampler thermostat at 4 °C.
(§2) Mass spectrometric analysis of flumazenil in ACN was initially conducted on a 4000 QTrap LC-MS/MS system using API Analyst software 1.4.1 (AB Sciex, Concord, ON, Canada) to obtain the appropriate MS parameters and m/z for flumazenil fragments. Samples were introduced into the spectrometer, either by the HPLC system (Agilent 1100) or by a syringe pump, at a flow rate of 10 µL min^−1 (Harvard Apparatus Inc., Holliston, MA, USA). Chromatographic separation was conducted as described in the HPLC conditions section. The analytes were ionized by a turbo spray ion source (electrospray ionization, [ESI]) in the positive-ion mode at 5000 V and 350 °C. Mass spectra were recorded within a range of 100–1000 amu with unit resolutions of Q1 and Q3. The LC-tandem MS determination of flumazenil concentration was conducted in the multiple reaction monitoring positive-ion mode with transition ion pairs 304 → 258 and 304 → 276. Vaporized liquid nitrogen gas was used as the nebulizer, curtain, and collision gas in all 4000 QTrap LC–MS/MS studies.
Normal rat livers were obtained from healthy male SD rats weighing 400–450 g. […]

Data set [2] can be described thus: Flumazenil metabolization in rat liver microsomes (LC-DAD/tandem MS). The format is in vitro ADME. The method, then: as §1
as §2, with “Vaporized liquid nitrogen gas was used as the nebulizer, curtain, and collision gas in all 4000 QTrap LC–MS/MS studies.” left out
Incubation solutions were prepared according to the manufacturer’s instructions. […] The supernatants were filtered through a 0.22 µm PVDF disk filter and analyzed using LC-DAD and tandem MS. […]
Background: Microsomes from liver hold many membrane-bound enzymes, among them those of drug oxidation.

Data set [3] can be described thus: Radiochemical stability of [18F]flumazenil in 30% ethanol after end of synthesis. The format is physicochemical. To be noted: amber glass vial, room temperature, 8 h after end of synthesis (EOS).
The nature of data set [4]: In vitro serum stability of [18F]flumazenil (radio-TLC). To be noted: for Radiochemical Purity (RCP, %) in serum: rat serum, 37 °C.
Method: Serum preparation: healthy SD rats were deeply anesthetized with isoflurane gas (3% isoflurane in 50% oxygen, 1 mL/min). One milliliter of whole blood from healthy SD rats was withdrawn through the tail vein at room temperature and centrifuged at 3000 rpm for 10 min to obtain the prepared serum for stability testing.

For the compound `COC(=O)c1ncn2c1CN(C)C(=O)c1cc(F)ccc1-2` [Metabolite M1], the M1 formation entry in data set [1] (flumazenil incubated in rat liver homogenate 0–250 min) is “relatively low amount”.
With `CN1Cc2c(C(=O)O)ncn2-c2ccc(F)cc2C1=O` [Metabolite M2], the “peak area of M2 increased by” value in data set [2] (up to 120 min incubation) came to 72%.
In the case of `CN1Cc2c(C(=O)OCCO)ncn2-c2ccc(F)cc2C1=O` [Metabolite M3], the “change of peak area of M3” value in data set [2] (up to 120 min incubation) is listed as “No significant increase”.
Regarding `CCOC(=O)c1ncn2c1CN(C)C(=O)c1cc(F)ccc1-2` [flumazenil, ethyl 8-fluoro-5-methyl-6-oxo-5,6-dihydro-4H-benzo[f]imidazo [1,5-a] [1, 4]diazepine-3-carboxylate], the “flumazenil detected, of the initial amount” value in data set [2] (120 min incubation) is listed as “approximately 22%”. The “parent drug biotransformed (parent peak area)” value in data set [1] (rat liver homogenate, 37 °C, 4 h (240 min)) was “approximately 65%”.
As to `CCOC(=O)c1ncn2c1CN(C)C(=O)c1cc([18F])ccc1-2` [[^18F]flumazenil], in data set [3], the “radiochemical purity in 30% ethanol” value is above 90%. Moreover, the “Radiochemical Purity (RCP, %) in serum” value in data set [4] (0 min) is 95.76%; in data set [4] (5 min), 93.28%; in data set [4] (10 min) it was 91.07%; in data set [4] (30 min), 87.46%; in data set [4] (60 min) it was 85.68%; in data set [4] (120 min), 79.95%. The “Radiochemical Purity (RCP, %) in serum” value in data set [4] (240 min) came out at 72.13%. The “intact [18F]flumazenil in serum” value in data set [4] (up to 1 h of incubation, regular conditions) was above 85%. The “biotransformed metabolites in metabolism analysis” value in data set [1] (after 30 min, as worded in conclusions) is recorded as “about 50%”.
